Results on six compounds are retold here after US5525600A, “(Thiophen-2-yl)-piperidin or tetrahydropyridin carboxamides” (American Home Products Corporation, priority 1994, dated 1996).

In general, IC50 refers to the concentration at which inhibition is half-maximal.

Molecules are shown by their SMILES. Counter-ions that a name gives are not always drawn. Like-named read-outs stand apart in the source and are kept apart here.

For this test, the target named is T1, 5-HT1A serotonin receptor (Rattus norvegicus, UniProt P19327).
T1 sequence (P19327 1-422): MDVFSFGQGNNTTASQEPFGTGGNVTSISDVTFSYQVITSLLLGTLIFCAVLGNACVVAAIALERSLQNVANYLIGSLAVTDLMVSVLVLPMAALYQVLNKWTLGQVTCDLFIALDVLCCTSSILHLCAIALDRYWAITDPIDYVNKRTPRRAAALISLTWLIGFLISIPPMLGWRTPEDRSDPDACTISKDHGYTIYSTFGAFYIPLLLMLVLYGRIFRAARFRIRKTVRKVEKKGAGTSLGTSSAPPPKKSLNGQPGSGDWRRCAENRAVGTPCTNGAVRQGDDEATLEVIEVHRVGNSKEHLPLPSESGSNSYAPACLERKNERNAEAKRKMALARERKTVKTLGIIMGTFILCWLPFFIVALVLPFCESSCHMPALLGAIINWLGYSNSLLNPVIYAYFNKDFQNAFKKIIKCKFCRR
The experiment in a line: biochemical. Format: binding.

Setting [1] is: displacement of [^3 H]8-OHDPAT, read-out: 5-HT1A Binding (IC50).

Take `COc1ccsc1C1(O)CCN(CCC(C(=O)N2CCCCCC2)c2ccccc2)CC1` (stereo not drawn) [Example 1, 1-Azepan-1-yl-4-[4-hydroxy-4-(3-methoxy-thiophen-2-yl)-piperidin-1-yl]-2-phenyl-butan-1-one 0.75 hydroiodide]: inhibition was half-maximal at 800 pM (IC50).

Turning to `COc1ccsc1C1=CCN(CCC(C(=O)N2CCCCCC2)c2ccccc2)CC1` (stereo not drawn) [Example 2, 1-Azepan-1-yl-4-[4-(3-methoxy-thiophen-2-yl)-1,2,3,6-tetrahydro-pyridin-1-yl]-2-phenyl-butan-1-one], the half-maximal inhibitory concentration (IC50) was 250 pM. Take `COc1ccsc1C1CCN(CCC(C(=O)N2CCCCCC2)c2ccccc2)CC1` (stereo not drawn) [Example 3, 1-Azepan-1-yl-4-[4-(3-methoxy-thiophen-2-yl)-piperidin-1-yl]-2-phenyl-butan-1-one fumarate salt]: the IC50 under setting [1] is 980 pM. Consider `COc1ccsc1C1=CCN(CC[C@H](C(=O)N2CCCCCC2)c2ccccc2)CC1` [Example 4, (S)-1-Azepan-1-yl-4-[4-(3-methoxy-thiophen-2-yl)-1.2.3.6-tetrahydro-pyridin-1-yl]-2-phenyl-butan-1-one hydrochloride salt], for which half-maximal inhibition (IC50) was put at 200 pM. With `COc1ccsc1C1CCN(CC[C@H](C(=O)N2CCCCCC2)c2ccccc2)CC1` [Example 5, (2S)-1-(Azepan-1-yl)-4-[4-(3-methoxy-thiophen-2-yl)-piperidin-1-yl]-2-phenyl-butan-1-one dihydrochloride salt], the half-inhibitory concentration (IC50) under setting [1] was determined as 700 pM.

Take `O=C1CC2(CCCC2)CC(=O)N1CCCCN1CCN(c2ncccn2)CC1` [buspirone, reference compound]: the “affinity for the serotonin 5-HT1A receptor (in words)” value (displacement of [^3 H]8-OHDPAT) is “potent affinity”.
